Columns and labels:
[1] = tested on: S. aureus; assay: Well diffusion assay, antibacterial; assay type: cell-based, Staphylococcus aureus; details: 10 μl
Source text: (§1) The investigation focused on the antibacterial properties of extracts derived from onion peel, pomegranate peel, and chia seed, particularly when encapsulated in nanoformulations (OPE-CSNP and PPE-CSNP). The extracts, known for their richness in bioactive compounds like phenolic compounds, flavonoids, and tannins, were explored for potential health benefits against various microbes. The study employed the inhibition zone diameter to evaluate the effectiveness of these natural extracts in inhibiting microbial growth, thereby assessing their antimicrobial properties.
(§2) Moreover, these composites show promise as food preservatives, potentially extending shelf life, given their moderate antimicrobial activity against B. cereus and S. aureus.

[2] = tested on: B. cereus; assay: Well diffusion assay, antibacterial; assay type: cell-based, Bacillus cereus; details: 10 μl
Source text: as §1, §2

Row | Molecule | Inhibition zone diameter (mm) S. aureus [1] [mm] | Inhibition zone diameter (mm) B. cereus [2] [mm]
1 | CC1(C)S[C@@H]2[C@H](NC(=O)[C@H](N)c3ccccc3)C(=O)N2[C@H]1C(=O)O [Ampicillin, ampicillin] | 16 | 16
2 | penicillin | 14 | 14

Source: patent publication US12329171B1, “Natural food preservative” (IMAM MOHAMMAD IBN SAUD ISLAMIC UNIVERSITY, priority 2024, dated 2025)
